Series [1] has as its system Musca domestica. The series can be described thus: Insecticidal activity against Musca domestica Takatsuki assessed as mortality injected into thorax measured after 24 hrs. The format is functional.
Series [2] deals with Musca domestica. The series can be described thus: Insecticidal activity against Musca domestica Takatsuki in presence of metabolic inhibitor propyl 2-propynyl phenylphosphate. Type of series: functional.
Series [3] relates to Musca domestica. The series can be described thus: Insecticidal activity against Musca domestica Takatsuki assessed as mortality at 15 ug applied topically. The format is functional.
Series [4] in a line: Octanol-water partition coefficient, log P of the compound. Type of series: physicochemical.
The test system of series [5] is Musca domestica. The series can be described thus: Toxicity against Musca domestica Takatsuki assessed as neurological side effects at 1100 ng. Type of series: functional, organism-based.

What is called logP is the decadic logarithm of the partition coefficient of the neutral form, usually between octanol and water. For the compound `O=[N+]([O-])/N=C1\N(Cc2ccc(Cl)nc2)CCN1Cc1ccc2c(c1)OCCOCCOCCOCCO2`, the LD50 with Musca domestica [1] stood at 25 ng. Moreover, the Activity in the series with Musca domestica [2] is on record as 4.8 ng; with Musca domestica [3], 44%. In addition, the logP in series [4] was 0.15.
On to `O=[N+]([O-])/N=C1\NCCN1Cc1ccc(Cl)nc1` [IMIDACLOPRID], for which, in the series on Musca domestica [1], the LD50 worked out at 84 ng.
In the case of `O=[N+]([O-])/N=C1\N(Cc2ccc(Cl)nc2)CCN1Cc1ccc2c(c1)OCCOCCOCCOCCOCCO2`, in the series on Musca domestica [1], the LD50 is 17 ng. Besides, the Activity worked out at 4.3 ng in the series on Musca domestica [2] and 38% in the series with Musca domestica [3]. In series [4], this compound gave a lipophilicity (logP) of 0.28.
As for `c1ccc2c(c1)OCCOCCOCCOCCO2`, in the series on Musca domestica [5], the Activity entry was “Not toxic”.
Same read-out and setting: to `c1ccc2c(c1)OCCOCCOCCOCCOCCO2` belongs “Not toxic”.

The values above are taken from ChEMBL document CHEMBL1136901, “Crown-capped imidacloprid: a novel design and insecticidal activity” (Bioorg Med Chem Lett, 2009).
